Read-outs that look alike come from different tables or passages of the source.
Legend:
[1] = 25° C./60% rh
[2] = DVS; for removal of water on drying (in words): ten hours of nitrogen purge at room temperature
Experimental: DVS measurements are typically performed at 25° C. with an SPS11-100n “Sorptions Prüfsystem” from ProUmid (formerly “Projekt Messtechnik”), August-Nagel-Str. 23, 89079 Ulm (Germany).

[3] = Water content of the sample before DVS (TG-FTIR mass loss or Karl Fischer titration)
Experimental: Thermogravimetric measurements were carried out with a Netzsch Thermo-Microbalance TG 209 coupled to a Bruker FTIR Spectrometer Vector 22 (sample pans with a pinhole, N2 atmosphere, heating rate 10 K/min).
A sample of crystalline monosodium salt according to at least one of the previous examples is investigated by thermogravimetry coupled with infrared spectroscopy (TG-FTIR). Thermogravimetric measurements were done with a sample mass of about 6 mg. […] The same sample is now examined by dynamic vapor sorption analysis (DVS). About 20 mg of sample are placed put into an aluminum sample pan. Humidity change rates of 5% per hour were used. […] The sample was placed on an aluminum holder on top of a microbalance and allowed to equilibrate at 50% RH before starting the pre-defined humidity program in the following way: • (1) 2 hours at 50% relative humidity • (2) 50→0% relative humidity (5%/hour); 10 hours at 0% relative humidity • (3) 0→75% relative humidity (5%/hour); 5 hours at 75% relative humidity • (4) 75→0% relative humidity (5%/hour); 10 hours at 0% relative humidity • (5) 0→50% relative humidity (5%/hour); 2 hours at 50% relative humidity
A sample of crystalline calcium salt of MTHF is examined by Karl Fischer titration to evaluate the water content. […]

[4] = 40° C./75% rh
[5] = room temperature; purified/de-ionized water; vigorously agitated and briefly sonicated
Experimental: 2.535 ml of purified/de-ionized water (for instance water for chromatography) is added to the solid using an adjustable volumetric pipette. The mixture is vigorously agitated at room temperature and briefly sonicated.

[6] = room temperature; suspension stirred 30 minutes with excess solid

Row | SMILES | 5-methyl-(6S)-tetrahydrofolic acid content ([1]; 0 months) | 5-methyl-(6S)-tetrahydrofolic acid content ([1]; 3 months) | 5-methyl-(6S)-tetrahydrofolic acid content ([1]; 6 months) | 5-methyl-(6S)-tetrahydrofolic acid content ([1]; 9 months) | 5-methyl-(6S)-tetrahydrofolic acid content ([1]; 12 months) | hygroscopicity compared with the calcium salt (in words) ([2]; relative humidity 20% to 75%) | removal of water on drying (in words) ([2]; listed as crystalline monosodium salt, monosodium salt) | removal of water on drying (in words) ([2]; listed as crystalline sodium salt of 5-methyl-(6S)-tetrahydrofolic acid, monosodium salt) | mass loss at 200° C. (TG-FTIR), essentially the water content ([3]; after drying in air at room temperature, sample mass about 6 mg) | 5-methyl-(6S)-tetrahydrofolic acid content ([4]; 0 months) | 5-methyl-(6S)-tetrahydrofolic acid content ([4]; 3 months) | 5-methyl-(6S)-tetrahydrofolic acid content ([4]; 6 months) | 5-methyl-(6S)-tetrahydrofolic acid content ([4]; 9 months) | 5-methyl-(6S)-tetrahydrofolic acid content ([4]; 12 months) | kinetic solubility in water [5] | removal of water on drying (in words) [2] | solubility in water [6] | water content (Karl Fischer titration) ([3]; sample before DVS)
1 | CN1c2c(nc(N)[nH]c2=O)NC[C@@H]1CNc1ccc(C(=O)N[C@@H](CCC(=O)[O-])C(=O)O)cc1.[Na+] [5-methyl-(6S)-tetrahydrofolic acid monosodium salt] | 94.7 % w/w | 93.0 % w/w | 94.2 % w/w | 95.6 % w/w | 94.1 % w/w | less hygroscopic | all the water of the sample is essentially removed | water can essentially be removed | about 1.3% | 94.7 % w/w | 92.7 % w/w | (81.8)^1 % w/w | 94.8 % w/w | 92.9 % w/w | – | – | – | –
2 | CN1c2c([nH]c(N)nc2=O)NC[C@@H]1CNc1ccc(C(=O)N[C@@H](CCC(=O)[O-])C(=O)[O-])cc1.[Ca+2] [calcium salt of 5-methyl-(6S)-tetrahydrofolic acid] | 80.7 % w/w | 79.0 % w/w | 77.7 % w/w | 78.5 % w/w | 77.9 % w/w | – | – | – | – | 80.7 % w/w | 78.5 % w/w | 78.0 % w/w | 78.8 % w/w | 77.8 % w/w | smaller than 10 mg per 1 ml of water | less than half of the water can be removed | 7100 µg/mL | 12.4%
